This is an account of results in PubChem BioAssay (NCI).

Test systems include NCI/ADR-RES ovarian; HCT-15 colon; SW-620 colon; OVCAR-3 ovarian; SF-539 CNS; SK-MEL-28 melanoma; MDA-N; CAKI-1 renal; MDA-MB-231 breast; NCI-H522 lung.
Holding throughout (experiment): NCI anticancer screen, dose series, 48 h

The structures appear in SMILES notation.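 Exposure lasted 48 hours, with cells grown in 96-well plates and compounds tested at five concentrations. GI50 is the concentration that inhibits growth by half. TGI: concentration producing complete growth inhibition.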 Where a SMILES comes first, the peptide text is derived from it. [ ]: non-standard residue; d: D form. The star is where a group is joined. Tyr(3-Br) = N[C@@H](Cc1ccc(O)c(Br)c1)C(=O)O; Boc = CC(C)(C)OC(=O)* Where only a bound is given, the exact number is not on record here.

`COC(=O)[C@H](Cc1ccc(O)c(Br)c1)NC(=O)[C@H](Cc1ccc(O)cc1)NC(=O)OC(C)(C)C` (Boc-Tyr-[Tyr(3-Br)]-OMe): the TGI was > 100 µM in the assay on NCI/ADR-RES ovarian; 44 µM with HCT-15 colon; > 100 µM in the assay on SW-620 colon; 38.3 µM in the assay with OVCAR-3 ovarian; 94.9 µM in the assay with SF-539 CNS; > 100 µM in the assay with SK-MEL-28 melanoma. Also, the TGI with MDA-N and with CAKI-1 renal was > 100 µM each time.

For the compound `O=C(Cc1csc(N=Nc2c(O)[nH]c3ccccc23)n1)Nc1ccccc1`, the TGI in the assay on NCI/ADR-RES ovarian is 41 µM; in the assay with HCT-15 colon, > 100 µM; in the assay with SW-620 colon, > 100 µM; in the assay with OVCAR-3 ovarian, 93.3 µM; in the assay on MDA-MB-231 breast, > 100 µM; with SF-539 CNS, 79.4 µM. Further, the TGI with SK-MEL-28 melanoma amounted to 46.5 µM; in the assay on CAKI-1 renal, 53.4 µM.

In the case of `CCCCc1ccc(Nc2nc(=S)c3[nH]cnc3[nH]2)cc1`, the TGI is 40.3 µM in the assay on NCI/ADR-RES ovarian; > 100 µM with HCT-15 colon; 60.9 µM with SW-620 colon; 43 µM in the assay on OVCAR-3 ovarian; 83.3 µM in the assay on MDA-MB-231 breast; 48 µM in the assay on SF-539 CNS. Besides, the TGI in the assay on SK-MEL-28 melanoma was > 100 µM; with NCI-H522 lung it was 22.8 µM; in the assay with CAKI-1 renal, 92.6 µM.

Consider `c1ccc(P(CCP(c2ccccn2)c2ccccn2)c2ccccc2)cc1`, for which the TGI in the assay on NCI/ADR-RES ovarian, in the assay with HCT-15 colon, in the assay with SW-620 colon, with SF-539 CNS, in the assay with SK-MEL-28 melanoma and in the assay on MDA-N was > 100 µM throughout. In addition, the TGI with CAKI-1 renal was > 100 µM.

With `CC(C)CCC[C@@H](C)C1CCC2[C@@H]3CC=C4C[C@@H](C(=O)NCC[N+](C)(C)CCCS(=O)(=O)[O-])CC[C@]4(C)C3CC[C@@]21C` (stereo partly specified), the TGI in the assay on HCT-15 colon stood at 30.9 µM; with SW-620 colon it was 30.7 µM; in the assay on OVCAR-3 ovarian, 30 µM; with SF-539 CNS, 36.6 µM; in the assay with SK-MEL-28 melanoma it was 34.5 µM; in the assay with NCI-H522 lung, 23.6 µM. The TGI with CAKI-1 renal worked out at 27.2 µM.

As to `C[C@]12Cc3cnn(-c4ccc(F)cc4)c3NC1CC[C@@H]1C2CC[C@@]2(C)C1CC[C@@H]2O` (stereo partly specified), the TGI came to 13.6 µM with SW-620 colon; 46.3 µM in the assay with OVCAR-3 ovarian; 46.9 µM in the assay with MDA-MB-231 breast; 8.56 µM in the assay on SF-539 CNS; 27.2 µM with SK-MEL-28 melanoma; 21.8 µM in the assay with MDA-N. Moreover, the TGI in the assay with NCI-H522 lung came to 25.4 µM; in the assay on CAKI-1 renal, 49.4 µM.

Regarding `CC1(C)CC(=O)C2=C(C1)NC1=C(C(=O)CC(C)(C)C1)C2c1ccc([N+](=O)[O-])cc1`, the TGI in the assay on HCT-15 colon, with SW-620 colon, with OVCAR-3 ovarian, with MDA-MB-231 breast, in the assay on SF-539 CNS and in the assay on SK-MEL-28 melanoma was > 100 µM throughout. In addition, the TGI with MDA-N, in the assay on NCI-H522 lung and with CAKI-1 renal was > 100 µM throughout.

Regarding `O=c1[nH]c2cc([N+](=O)[O-])ccc2nc1/C(=N/Nc1ccccc1)C(O)c1ccc(C(O)/C(=N\Nc2ccccc2)c2cnc3cc([N+](=O)[O-])ccc3n2)cc1` (stereo unspecified), the TGI in the assay with SW-620 colon, with OVCAR-3 ovarian, in the assay on SF-539 CNS, in the assay with SK-MEL-28 melanoma, in the assay with NCI-H522 lung and with CAKI-1 renal was > 100 µM throughout.

As to `CC(C)(C)NC(=O)NC12CC3CC(CC(F)(C3)C1)C2`, the TGI with SW-620 colon, with OVCAR-3 ovarian, in the assay on SF-539 CNS, with SK-MEL-28 melanoma and with NCI-H522 lung was > 100 µM in each case.

With `COc1cc(/C=C/c2cc(/C=C/c3ccc(O)c(OC)c3)nc(N)n2)ccc1O`, the GI50 with NCI/ADR-RES ovarian is 2.88 µM; in the assay on HCT-15 colon, 2.82 µM; in the assay with OVCAR-3 ovarian, 2.65 µM; in the assay on MDA-MB-231 breast, 1.45 µM; in the assay on SF-539 CNS, 2.05 µM; in the assay with SK-MEL-28 melanoma it was 1.85 µM. For the same compound, the GI50 in the assay on NCI-H522 lung is 1.24 µM; in the assay on CAKI-1 renal it was 2.23 µM. The TGI with NCI/ADR-RES ovarian was 18.8 µM; with HCT-15 colon it was 10.3 µM; in the assay with OVCAR-3 ovarian, 8.62 µM; with MDA-MB-231 breast, 4.08 µM; with SF-539 CNS it was 5.73 µM; in the assay on SK-MEL-28 melanoma, 4.53 µM. Further, the results for the TGI in the assay on NCI-H522 lung and with CAKI-1 renal were 2.79 µM and 6.46 µM, respectively.

On to `O=C(NNC(c1ccccc1)C(F)(F)F)c1ccncc1` (stereo unspecified), for which the TGI in the assay with NCI/ADR-RES ovarian, with HCT-15 colon, in the assay on SW-620 colon, in the assay with MDA-MB-231 breast, in the assay with SF-539 CNS and in the assay on SK-MEL-28 melanoma was > 100 µM throughout. Besides, the TGI in the assay on NCI-H522 lung and in the assay on CAKI-1 renal was > 100 µM each time.

`c1ccc(C2=NOC3(c4ccccc4)SC4CCCCC4CN23)cc1` (stereo unspecified): the TGI is > 100 µM with HCT-15 colon; > 100 µM in the assay with SW-620 colon; > 100 µM in the assay with OVCAR-3 ovarian; 39.2 µM in the assay with SF-539 CNS; > 100 µM in the assay with SK-MEL-28 melanoma; 22.6 µM in the assay on NCI-H522 lung. Also, the TGI in the assay with CAKI-1 renal was 63.8 µM.

As to `COc1ccc(C2Oc3cc(OC)c(O)c(C)c3[C@H]2C)cc1` (stereo partly specified), the TGI in the assay with HCT-15 colon, with SW-620 colon, with OVCAR-3 ovarian, in the assay on SF-539 CNS, in the assay on SK-MEL-28 melanoma and with NCI-H522 lung was > 100 µM each time. The TGI with CAKI-1 renal is > 100 µM.

Consider `O=C(C[n+]1ccccc1)N/N=C(\Cc1nc2ccc([N+](=O)[O-])cc2[nH]c1=O)C(=O)Nc1cc(Cl)c(Cl)cc1Cl`, for which the TGI in the assay with NCI/ADR-RES ovarian, in the assay with HCT-15 colon, in the assay on SW-620 colon, with OVCAR-3 ovarian, with MDA-MB-231 breast and in the assay on SF-539 CNS was > 100 µM each time. Further, the TGI in the assay on SK-MEL-28 melanoma, with NCI-H522 lung and in the assay with CAKI-1 renal was > 100 µM in each case.

Consider `C=C1C(=O)OC2/C=C(/C)C3CC(O)C(C)(CC(OC(=O)/C(C)=C/C)C12)O3` (stereo unspecified), for which the TGI with HCT-15 colon came to 3.61 µM; in the assay with SW-620 colon it was 3.46 µM; in the assay on OVCAR-3 ovarian, 14.2 µM; with SF-539 CNS, 4.86 µM; in the assay on SK-MEL-28 melanoma, 8.35 µM; in the assay on NCI-H522 lung, 6.12 µM. This compound showed a TGI in the assay with CAKI-1 renal of 4.86 µM.

As to `COc1cc(/C=C2/SC(c3ccccc3)N(c3ccccc3)C2=O)cc(OC)c1OC` (stereo unspecified), the TGI with NCI/ADR-RES ovarian, in the assay on HCT-15 colon, with SW-620 colon, in the assay on OVCAR-3 ovarian, in the assay on MDA-MB-231 breast and in the assay with SF-539 CNS was > 100 µM throughout. Besides, the TGI in the assay on SK-MEL-28 melanoma, in the assay on NCI-H522 lung and with CAKI-1 renal was > 100 µM throughout.

Take `COP(=O)(Cc1ccccc1)Cc1ccccc1`: the TGI in the assay with NCI/ADR-RES ovarian, in the assay with HCT-15 colon, in the assay on SW-620 colon, with MDA-MB-231 breast, in the assay on SF-539 CNS and in the assay on SK-MEL-28 melanoma was > 100 µM throughout. For the same compound, the TGI in the assay on NCI-H522 lung and with CAKI-1 renal was > 100 µM throughout.

For the compound `O=C(O)CS`, the TGI with HCT-15 colon, with SW-620 colon, in the assay on SF-539 CNS, in the assay with SK-MEL-28 melanoma, in the assay with NCI-H522 lung and with CAKI-1 renal was > 100 µM in each case.

On to `CS(=O)(=O)c1c(N)c2nc(Cl)cn2c2nc3ccccc3nc12`, for which the TGI in the assay with HCT-15 colon, in the assay with SW-620 colon, with OVCAR-3 ovarian, in the assay with SF-539 CNS, in the assay with SK-MEL-28 melanoma and in the assay on NCI-H522 lung was > 100 µM each time. In addition, the TGI in the assay on CAKI-1 renal was > 100 µM.

Turning to `Clc1ccccc1C1=NN(c2ccccc2)C2c3ccccc3OCC12` (stereo unspecified), the TGI with SW-620 colon, in the assay on OVCAR-3 ovarian, with SK-MEL-28 melanoma and in the assay on NCI-H522 lung was > 100 µM in each case.

Consider `CCN(CC)CCCNc1ncc(C)c2[nH]c3ccncc3c12`, for which the TGI was > 100 µM in the assay with NCI/ADR-RES ovarian; > 100 µM in the assay with HCT-15 colon; 36.9 µM in the assay with SW-620 colon; 56.3 µM in the assay on OVCAR-3 ovarian; 20.9 µM with SF-539 CNS; 27.4 µM with SK-MEL-28 melanoma. For the same compound, the TGI in the assay on NCI-H522 lung is 22.8 µM.

Take `CCN(CC)CCCC(C)Nc1ccnc2ccc3nn(C)nc3c12` (stereo unspecified): the figures for the TGI in the assay with SW-620 colon, with SF-539 CNS and in the assay on CAKI-1 renal were 75.7 µM, > 100 µM and > 100 µM, respectively.

Turning to `CN1CCCCC(C#N)(c2ccccc2)CC1` (stereo unspecified), the TGI in the assay with NCI/ADR-RES ovarian, in the assay with HCT-15 colon, in the assay on SW-620 colon, in the assay on SK-MEL-28 melanoma, in the assay on MDA-N and with CAKI-1 renal was > 100 µM each time.

`CN(CCO)c1nc(N)cc(=O)[nH]1`: the TGI with HCT-15 colon, with SW-620 colon, with OVCAR-3 ovarian, with SF-539 CNS, in the assay on SK-MEL-28 melanoma and in the assay with NCI-H522 lung was > 100 µM each time. Further, the TGI with CAKI-1 renal is > 100 µM.

Take `S=P1(N2CCCCC2)Oc2ccc3ccccc3c2-c2c(ccc3ccccc23)O1`: the TGI was > 100 µM in the assay with NCI/ADR-RES ovarian; > 100 µM in the assay with HCT-15 colon; > 100 µM with SW-620 colon; > 88.3 µM in the assay with OVCAR-3 ovarian; > 100 µM in the assay on SF-539 CNS; > 100 µM with SK-MEL-28 melanoma. The TGI in the assay with NCI-H522 lung and with CAKI-1 renal was > 100 µM each time.
